Activity calls are given as the source filed them. Some results are limits rather than exact numbers.

Assay [1] deals with Voltage-gated N-type calcium channel alpha-1B subunit/Amyloid beta A4 precursor protein-binding family A member 1 (Homo sapiens, UniProt Q00975+Q02410). It counts as protein assay.
Assay [2] addresses DNA dC->dU-editing enzyme APOBEC-3G (Homo sapiens, UniProt Q9HC16). Nature of the assay: Dose Response confirmation of small molecule APOBEC3G DNA Deaminase Inhibitors via a fluorescence-based single-stranded DNA deaminase assay. [Related pubchem assays (depositor defined):AID493012, AID493028]. The assay is classed as functional.
The next assay has as its target T1, Hexokinase HKDC1 (Homo sapiens, UniProt Q2TB90).
T1 sequence (Q2TB90 whole entry): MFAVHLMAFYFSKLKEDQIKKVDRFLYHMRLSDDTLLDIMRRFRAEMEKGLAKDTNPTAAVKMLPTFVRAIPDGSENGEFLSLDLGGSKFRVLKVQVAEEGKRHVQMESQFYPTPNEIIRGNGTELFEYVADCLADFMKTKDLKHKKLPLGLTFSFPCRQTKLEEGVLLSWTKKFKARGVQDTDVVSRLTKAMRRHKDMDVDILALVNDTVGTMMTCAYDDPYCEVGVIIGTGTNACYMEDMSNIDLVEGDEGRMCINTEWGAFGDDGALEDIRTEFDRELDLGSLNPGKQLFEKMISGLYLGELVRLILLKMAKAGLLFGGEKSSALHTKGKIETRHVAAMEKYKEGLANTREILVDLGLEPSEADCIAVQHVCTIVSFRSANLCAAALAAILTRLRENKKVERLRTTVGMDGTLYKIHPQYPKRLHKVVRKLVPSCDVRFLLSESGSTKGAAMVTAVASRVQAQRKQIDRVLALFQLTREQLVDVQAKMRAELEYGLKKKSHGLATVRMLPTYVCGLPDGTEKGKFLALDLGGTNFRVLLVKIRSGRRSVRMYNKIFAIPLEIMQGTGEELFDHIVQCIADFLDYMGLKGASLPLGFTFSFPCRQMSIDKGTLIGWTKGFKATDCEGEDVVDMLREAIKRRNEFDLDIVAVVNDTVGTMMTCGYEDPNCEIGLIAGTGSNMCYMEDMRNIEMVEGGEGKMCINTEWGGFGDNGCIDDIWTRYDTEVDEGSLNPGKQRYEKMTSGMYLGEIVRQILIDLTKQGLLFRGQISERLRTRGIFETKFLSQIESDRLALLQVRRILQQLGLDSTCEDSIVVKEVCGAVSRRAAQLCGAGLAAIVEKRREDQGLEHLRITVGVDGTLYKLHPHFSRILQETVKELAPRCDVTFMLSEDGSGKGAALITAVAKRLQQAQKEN
Description: HKDC1 hexokinase inhibitors, dose response, biochemical, W721R variant (AID 504729). It counts as functional.

A short description of assay [3]: HeLa cell cytotoxicity, dose response, cytotoxicity control for MgcRacGAP inhibitor project (AID 624300). The assay is classed as functional.
In assay [4] the target is T2, Serine/threonine-protein phosphatase (Homo sapiens, UniProt Q9BPW0).
T2 sequence (Q9BPW0 whole entry): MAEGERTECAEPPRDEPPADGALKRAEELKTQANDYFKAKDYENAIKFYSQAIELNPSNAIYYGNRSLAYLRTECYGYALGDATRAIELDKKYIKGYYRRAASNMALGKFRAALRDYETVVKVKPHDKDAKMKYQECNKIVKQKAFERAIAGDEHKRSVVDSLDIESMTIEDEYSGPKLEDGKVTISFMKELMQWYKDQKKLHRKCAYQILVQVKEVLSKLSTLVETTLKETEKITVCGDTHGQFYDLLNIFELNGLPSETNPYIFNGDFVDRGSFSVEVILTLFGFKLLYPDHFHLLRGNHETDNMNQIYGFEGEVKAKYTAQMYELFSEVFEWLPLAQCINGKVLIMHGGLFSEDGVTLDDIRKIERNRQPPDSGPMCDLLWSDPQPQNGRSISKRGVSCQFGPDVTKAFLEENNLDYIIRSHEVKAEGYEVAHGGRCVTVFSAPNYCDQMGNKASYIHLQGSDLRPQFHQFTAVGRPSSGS
Description: Counterscreen for inhibitors of PP1: fluorescence-based biochemical high throughput dose response assay to identify inhibitors of Protein Phosphatase 5 (PP5). [Related pubchem assays: 2034 (Summary (PP5 inhibitors)), 1987 (PP5 inhibitors in singlate), 2235 (PP1 inhibitors in singlate)].

The target in assay [5] is Death-associated protein kinase 3 (Homo sapiens, UniProt O43293). It counts as functional.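 Also: measured as one member of a kinome-wide profiling panel.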
The target of assay [6] is Fibroblast growth factor receptor 1 (Homo sapiens, UniProt P11362). The assay is classed as functional.
In assay [7] the target is Mitogen-activated protein kinase 9 (Homo sapiens, UniProt P45984). It counts as functional.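 Also: value from a kinome panel profiling assay, MAPK9 panel entry.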
Assay [8] addresses Glycogen synthase kinase-3 alpha (Homo sapiens, UniProt P49840). The assay is classed as functional.
Assay [9] has as its target Hepatocyte growth factor receptor (Homo sapiens, UniProt P08581). It counts as functional.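 Also: kinase panel profiling across the kinome, with MET as the panel member.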
The target of assay [10] is Glycogen synthase kinase-3 beta (Homo sapiens, UniProt P49841). It counts as functional.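 Also: value comes from a broad kinome profiling panel, with GSK3B as the panel member.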
Assay [11] concerns the target Macrophage-stimulating protein receptor (Homo sapiens, UniProt Q04912). Nature of the assay: Navigating the Kinome. Panel member name: MST1R. The assay is classed as functional.
In assay [12] the target is Calcium/calmodulin-dependent protein kinase type II subunit alpha (Homo sapiens, UniProt Q9UQM7). Description: Navigating the Kinome. Panel member name: CAMK2A. The assay is classed as functional.
In assay [13] the target is T3, Zinc finger protein mex-5 (Caenorhabditis elegans, UniProt Q9XUB2).
T3 sequence (Q9XUB2 whole entry): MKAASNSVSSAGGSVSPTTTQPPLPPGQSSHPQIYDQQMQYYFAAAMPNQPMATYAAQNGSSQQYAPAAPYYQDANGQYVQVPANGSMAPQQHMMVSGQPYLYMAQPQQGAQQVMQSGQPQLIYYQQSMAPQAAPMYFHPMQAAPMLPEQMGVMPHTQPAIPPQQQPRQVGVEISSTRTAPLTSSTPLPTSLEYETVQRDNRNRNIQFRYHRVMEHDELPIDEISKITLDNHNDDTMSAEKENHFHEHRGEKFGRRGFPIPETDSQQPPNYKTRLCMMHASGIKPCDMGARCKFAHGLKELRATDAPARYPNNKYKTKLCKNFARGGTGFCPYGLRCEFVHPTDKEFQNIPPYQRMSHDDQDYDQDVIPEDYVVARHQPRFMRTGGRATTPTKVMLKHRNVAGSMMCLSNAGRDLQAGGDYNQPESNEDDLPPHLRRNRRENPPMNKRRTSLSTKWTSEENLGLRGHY
Description: MEX-5/TCR-2 RNA interaction inhibitors, dose response, biochemical, C. elegans, fluorescence polarization (AID 1960).

The next assay concerns the target Large T antigen (Simian virus 40, UniProt P03070). The assay is classed as functional, Betapolyomavirus macacae.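 Also: Confirmatory-stage PubChem screen for compounds that inhibit SV40 T antigen.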

Chain of Mitogen-activated protein kinase 9 (P45984 whole entry): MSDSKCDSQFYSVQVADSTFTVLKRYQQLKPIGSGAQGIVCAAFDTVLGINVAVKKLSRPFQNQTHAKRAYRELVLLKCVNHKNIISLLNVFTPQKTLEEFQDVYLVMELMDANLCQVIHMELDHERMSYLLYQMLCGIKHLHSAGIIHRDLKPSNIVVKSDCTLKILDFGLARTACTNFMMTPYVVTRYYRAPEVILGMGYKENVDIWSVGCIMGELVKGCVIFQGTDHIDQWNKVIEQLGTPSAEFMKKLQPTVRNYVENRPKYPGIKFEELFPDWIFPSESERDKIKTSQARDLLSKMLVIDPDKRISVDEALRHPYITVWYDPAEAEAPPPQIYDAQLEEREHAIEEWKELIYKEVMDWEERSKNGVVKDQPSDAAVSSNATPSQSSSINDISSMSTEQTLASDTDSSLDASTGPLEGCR
Chain of Glycogen synthase kinase-3 beta (P49841 whole entry): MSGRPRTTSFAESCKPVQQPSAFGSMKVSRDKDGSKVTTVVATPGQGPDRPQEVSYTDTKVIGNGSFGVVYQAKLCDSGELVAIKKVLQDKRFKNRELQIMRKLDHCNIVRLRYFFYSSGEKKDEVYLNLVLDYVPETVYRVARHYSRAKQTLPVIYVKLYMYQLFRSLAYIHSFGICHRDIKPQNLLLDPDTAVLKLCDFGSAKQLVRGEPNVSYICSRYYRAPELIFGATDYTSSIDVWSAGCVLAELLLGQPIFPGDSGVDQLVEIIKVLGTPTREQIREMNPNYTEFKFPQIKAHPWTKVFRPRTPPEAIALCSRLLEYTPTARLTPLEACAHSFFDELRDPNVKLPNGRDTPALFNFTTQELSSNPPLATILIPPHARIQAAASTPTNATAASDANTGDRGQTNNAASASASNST
Chain of Fibroblast growth factor receptor 1 (P11362 whole entry): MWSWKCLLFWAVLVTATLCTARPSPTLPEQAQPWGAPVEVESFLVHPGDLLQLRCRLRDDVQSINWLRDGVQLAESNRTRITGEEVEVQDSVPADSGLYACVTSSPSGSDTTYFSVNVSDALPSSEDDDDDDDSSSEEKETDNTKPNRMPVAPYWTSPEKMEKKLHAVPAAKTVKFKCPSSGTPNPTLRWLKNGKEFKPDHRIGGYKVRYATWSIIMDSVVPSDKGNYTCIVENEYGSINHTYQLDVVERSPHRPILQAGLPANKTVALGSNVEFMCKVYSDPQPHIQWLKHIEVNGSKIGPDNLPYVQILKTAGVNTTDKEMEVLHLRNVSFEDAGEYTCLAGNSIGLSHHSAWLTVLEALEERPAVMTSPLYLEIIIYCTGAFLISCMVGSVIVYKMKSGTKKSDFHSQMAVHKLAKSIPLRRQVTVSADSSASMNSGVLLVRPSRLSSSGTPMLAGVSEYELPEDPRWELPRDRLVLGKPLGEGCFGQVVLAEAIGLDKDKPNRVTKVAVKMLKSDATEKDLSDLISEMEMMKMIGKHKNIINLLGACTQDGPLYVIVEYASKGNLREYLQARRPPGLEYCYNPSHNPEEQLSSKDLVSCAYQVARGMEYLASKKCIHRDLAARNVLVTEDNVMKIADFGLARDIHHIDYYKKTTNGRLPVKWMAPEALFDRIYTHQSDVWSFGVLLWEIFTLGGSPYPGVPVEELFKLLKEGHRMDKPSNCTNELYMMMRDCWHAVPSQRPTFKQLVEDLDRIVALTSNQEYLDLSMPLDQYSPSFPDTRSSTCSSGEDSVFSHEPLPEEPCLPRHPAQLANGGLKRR
Chain of Large T antigen (P03070 whole entry): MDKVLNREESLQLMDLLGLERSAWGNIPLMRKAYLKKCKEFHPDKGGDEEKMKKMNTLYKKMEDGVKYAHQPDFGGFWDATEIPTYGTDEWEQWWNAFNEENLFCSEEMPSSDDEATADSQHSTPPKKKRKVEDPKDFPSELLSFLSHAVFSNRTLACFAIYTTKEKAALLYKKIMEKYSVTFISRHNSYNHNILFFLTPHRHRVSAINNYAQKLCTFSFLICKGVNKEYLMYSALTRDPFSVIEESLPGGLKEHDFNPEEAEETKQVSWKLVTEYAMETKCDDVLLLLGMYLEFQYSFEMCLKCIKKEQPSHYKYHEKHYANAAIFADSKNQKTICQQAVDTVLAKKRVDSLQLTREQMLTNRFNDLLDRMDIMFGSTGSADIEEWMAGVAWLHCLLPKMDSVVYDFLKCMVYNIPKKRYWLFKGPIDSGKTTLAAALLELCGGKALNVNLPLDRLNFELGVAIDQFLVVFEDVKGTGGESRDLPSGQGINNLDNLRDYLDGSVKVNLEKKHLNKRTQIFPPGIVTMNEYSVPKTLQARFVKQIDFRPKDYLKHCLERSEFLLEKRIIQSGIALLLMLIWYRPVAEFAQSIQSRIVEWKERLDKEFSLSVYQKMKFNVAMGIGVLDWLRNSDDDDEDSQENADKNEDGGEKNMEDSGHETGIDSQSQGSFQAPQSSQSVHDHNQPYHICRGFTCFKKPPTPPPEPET
Chain of Death-associated protein kinase 3 (O43293 whole entry): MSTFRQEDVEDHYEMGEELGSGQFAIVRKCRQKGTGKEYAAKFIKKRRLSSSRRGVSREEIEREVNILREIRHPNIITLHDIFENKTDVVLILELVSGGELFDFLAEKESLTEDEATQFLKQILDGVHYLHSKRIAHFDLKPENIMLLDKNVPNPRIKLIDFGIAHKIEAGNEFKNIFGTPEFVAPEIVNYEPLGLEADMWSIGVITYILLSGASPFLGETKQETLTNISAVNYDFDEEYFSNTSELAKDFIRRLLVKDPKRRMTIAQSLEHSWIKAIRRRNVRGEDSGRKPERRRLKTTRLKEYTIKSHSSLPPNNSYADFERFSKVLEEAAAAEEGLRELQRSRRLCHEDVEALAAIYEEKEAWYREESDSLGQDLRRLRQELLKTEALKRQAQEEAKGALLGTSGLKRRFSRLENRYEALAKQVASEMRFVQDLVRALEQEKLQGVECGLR
Chain of Macrophage-stimulating protein receptor (Q04912 25-304 limits assumed): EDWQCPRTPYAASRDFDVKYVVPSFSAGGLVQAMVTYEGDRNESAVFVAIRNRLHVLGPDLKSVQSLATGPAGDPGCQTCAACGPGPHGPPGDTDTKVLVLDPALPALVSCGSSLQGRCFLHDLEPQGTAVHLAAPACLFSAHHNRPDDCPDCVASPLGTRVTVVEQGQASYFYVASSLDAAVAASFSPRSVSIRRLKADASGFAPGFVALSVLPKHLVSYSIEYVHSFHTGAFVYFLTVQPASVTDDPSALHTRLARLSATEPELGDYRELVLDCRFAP
Chain of Macrophage-stimulating protein receptor (Q04912 310-1400 limits assumed): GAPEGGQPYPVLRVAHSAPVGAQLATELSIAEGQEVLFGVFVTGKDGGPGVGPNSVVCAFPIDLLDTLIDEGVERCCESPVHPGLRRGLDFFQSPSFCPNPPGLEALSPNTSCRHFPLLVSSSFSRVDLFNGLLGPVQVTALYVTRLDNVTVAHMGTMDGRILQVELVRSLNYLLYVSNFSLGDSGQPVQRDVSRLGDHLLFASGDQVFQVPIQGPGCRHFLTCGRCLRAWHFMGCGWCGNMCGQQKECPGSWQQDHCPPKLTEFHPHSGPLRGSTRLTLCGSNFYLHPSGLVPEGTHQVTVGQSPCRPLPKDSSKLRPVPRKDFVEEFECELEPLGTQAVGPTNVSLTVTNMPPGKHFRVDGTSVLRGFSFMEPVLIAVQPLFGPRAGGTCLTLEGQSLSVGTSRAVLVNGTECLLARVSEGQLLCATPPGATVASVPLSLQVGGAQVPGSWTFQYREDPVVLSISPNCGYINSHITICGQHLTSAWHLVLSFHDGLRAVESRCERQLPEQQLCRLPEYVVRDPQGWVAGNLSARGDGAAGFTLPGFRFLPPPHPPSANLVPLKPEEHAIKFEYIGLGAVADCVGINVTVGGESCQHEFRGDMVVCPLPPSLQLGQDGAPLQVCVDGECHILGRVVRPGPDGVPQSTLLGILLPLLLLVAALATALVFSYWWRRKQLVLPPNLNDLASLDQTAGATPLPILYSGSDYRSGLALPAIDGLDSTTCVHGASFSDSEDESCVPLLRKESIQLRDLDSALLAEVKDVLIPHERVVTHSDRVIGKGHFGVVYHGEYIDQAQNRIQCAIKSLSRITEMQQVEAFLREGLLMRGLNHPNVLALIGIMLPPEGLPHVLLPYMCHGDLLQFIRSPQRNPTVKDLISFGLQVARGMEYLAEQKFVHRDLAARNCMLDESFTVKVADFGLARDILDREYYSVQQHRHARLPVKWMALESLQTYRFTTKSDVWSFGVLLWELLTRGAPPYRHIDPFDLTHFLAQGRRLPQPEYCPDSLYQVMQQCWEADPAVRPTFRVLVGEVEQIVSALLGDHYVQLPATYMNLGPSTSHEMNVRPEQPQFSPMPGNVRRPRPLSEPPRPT
Chain of Calcium/calmodulin-dependent protein kinase type II subunit alpha (Q9UQM7 whole entry): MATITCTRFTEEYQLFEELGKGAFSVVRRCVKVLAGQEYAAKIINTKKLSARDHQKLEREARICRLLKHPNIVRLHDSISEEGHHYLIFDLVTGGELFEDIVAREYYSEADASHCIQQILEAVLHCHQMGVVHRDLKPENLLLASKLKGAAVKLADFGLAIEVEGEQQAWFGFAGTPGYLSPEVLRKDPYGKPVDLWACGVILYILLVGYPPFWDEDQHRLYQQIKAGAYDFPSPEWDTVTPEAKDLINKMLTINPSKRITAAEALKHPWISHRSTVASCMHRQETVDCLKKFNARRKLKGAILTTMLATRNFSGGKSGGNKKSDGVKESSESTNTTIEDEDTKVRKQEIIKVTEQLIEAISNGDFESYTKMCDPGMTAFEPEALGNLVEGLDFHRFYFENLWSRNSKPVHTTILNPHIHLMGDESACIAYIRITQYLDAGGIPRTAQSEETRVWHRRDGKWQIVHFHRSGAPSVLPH

Turning to `CC(=O)N(C1=C(Cl)C(=O)c2ccccc2C1=O)c1ccc(C(=O)O)cc1`, the IC50 in assay [1] was 3.35 µM (active); in [2], 8.03 µM (active); on Hexokinase HKDC1, 6.23 µM (active). In addition, the CC50 in assay [3] was 36.1 µM (active).

Consider `CC1(C)C=C2C(=NN(c3ccccc3)C(N)=C2C#N)CO1`, for which the IC50 in [4] is > 0.828 µM (active).

Regarding `Cc1ccc(-c2cc3nc(Br)cnc3[nH]2)cc1`, the Ki in [5] is > 5.01 µM (inactive); in assay [6], > 3.98 µM (inactive); in assay [7] it was > 3.98 µM (inactive); in [8], > 3.98 µM (inactive); in [9], > 2.51 µM (inactive); in [10] it was > 3.98 µM (inactive). For the same compound, the Ki in assay [11] was > 3.98 µM (inactive); in assay [12], > 7.94 µM (inactive).

As to `O=C1C=C(O)c2c(O)cc(O)c(O)c2C1=O`, the EC50 in assay [13] is 0.899 µM (active). Also, the IC50 on Large T antigen was > 100 µM (active).
